The record followed here is patent US12371454B2, “Cyclic peptide compound having Kras inhibitory action” (priority 2019, dated 2025).

Starred links: 1 amine or outer side, 2 acyl side, 3 side chain; linkers in the order of their positions; H or OH if unused. Positions of bridges follow the written chain, without caps; N, C: chain ends. Non-standard residues stand in square brackets, D forms with d. Residues, ends and D or L forms follow the SMILES beside them. *: point of attachment. hPhe(3-Cl-4-CF3) = N[C@@H](CCc1ccc(C(F)(F)F)c(Cl)c1)C(=O)O; NMePhe(4-CF3) = CN[C@@H](Cc1ccc(C(F)(F)F)cc1)C(=O)O; NMeAbu(4,4,4-F3) = CN[C@@H](CC(F)(F)F)C(=O)O; NMePhe(4-Cl) = CN[C@@H](Cc1ccc(Cl)cc1)C(=O)O; NMePhe(4-Me) = CN[C@@H](Cc1ccc(C)cc1)C(=O)O; NMedβ3hAla = C[C@H](CC(=O)[*:2])N(C)[*:1]; Phe(3-CN) = N#Cc1cccc(C[C@H](N)C(=O)O)c1; NMeGly(cPent) = CN[C@H](C(=O)O)C1CCCC1; Phe(3-I) = N[C@@H](Cc1cccc(I)c1)C(=O)O; Pro(4,4-F2) = O=C(O)[C@@H]1CC(F)(F)CN1; NMeAla(cPr) = CN[C@@H](CC1CC1)C(=O)O; NMeCha = CN[C@@H](CC1CCCCC1)C(=O)O; X2 = C=CC[C@](C)(N[*:1])C(=O)[*:2]; NMeChg = CN[C@H](C(=O)O)C1CCCCC1; NMeF = CN[C@@H](Cc1ccccc1)C(=O)O; N(CH2CH2)2CF2 = FC1(F)CCN(*)CC1; NMeβAla = CN(CCC(=O)[*:2])[*:1]; NMeD = CN[C@@H](CC(=O)O)C(=O)O; NMeL = CN[C@@H](CC(C)C)C(=O)O; NMeV = CN[C@H](C(=O)O)C(C)C; d(β3hA) = C[C@@H](N)CC(=O)O; NMeS = CN[C@@H](CO)C(=O)O; NMeA = CN[C@@H](C)C(=O)O; NMeAib = CNC(C)(C)C(=O)O; Piperidide = C1CCN(*)CC1; Pyrrolidide = C1CCN(*)C1; Ac5c = NC1(C(=O)O)CCCC1; Abu = CC[C@H](N)C(=O)O; Ac4c = NC1(C(=O)O)CCC1; CH2CMe2OH = CC(C)(O)C*; Sar = CNCC(=O)O

T1 sequence (P01116 1-188 isoform P01116-2 G12D): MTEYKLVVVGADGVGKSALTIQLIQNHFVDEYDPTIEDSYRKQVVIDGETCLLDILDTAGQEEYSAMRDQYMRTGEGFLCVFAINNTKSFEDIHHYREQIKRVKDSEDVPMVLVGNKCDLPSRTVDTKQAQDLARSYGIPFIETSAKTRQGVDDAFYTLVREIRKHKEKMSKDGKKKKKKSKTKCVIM

This assay concerns the target T1, Kras and SOS1 (biotin-tagged human Kras loaded with GDP, His-tagged human SOS1) (Homo sapiens, UniProt P01116, G12D).
T1 construct: made in house; host or cells: E. coli (stated for Kras only)
In words: Protein-protein interaction inhibition between Kras and SOS1 (KrasGl2D-SOS PPI) using AlphaScreen. It counts as binding. The following applies: AlphaScreen; biotin-tagged human Kras loaded with GDP, His-tagged human SOS1; read-out: KRAS G12D-SOS PPI IC50. The method, boiled down: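 AlphaScreen format: Ni donor beads capture His-SOS1, streptavidin acceptor beads capture biotinylated Kras (E. coli-expressed, GDP-loaded post-purification). Excite 680 nm, read 520-620 nm.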
Background: Bead proximity is the source of the signal in Alpha formats.
By IC50 is commonly meant the concentration needed to halve the response being measured. For the compound `CC[C@@H]1NC(=O)[C@H](CC(=O)N2CCC(F)(F)CC2)N(C)C(=O)[C@H](CCc2ccc(C(F)(F)F)c(Cl)c2)NC(=O)CN(C)C(=O)[C@H](CC2CCCCC2)N(C)C(=O)CN(C)C(=O)CN(C)C(=O)[C@H]([C@@H](C)CC)NC(=O)[C@H](CC(C)C)N(C)C(=O)C[C@@H](C(=O)N2CCCCC2)N(C)C(=O)[C@H](C(C)C)N(C)C1=O` [Compound 240] ([NMeL]I[Sar][Sar][NMeCha][Sar][hPhe(3-Cl-4-CF3)][NMeD](N(CH2CH2)2CF2)[Abu][NMeV][NMeD]-Piperidide; lactam N-11), the IC50 was determined as 140 nM.

As for `CC[C@H](C)[C@@H]1NC(=O)[C@H](CC(C)C)N(C)C(=O)C[C@@H](C)N(C)C(=O)[C@H](C2CCCCC2)N(C)C(=O)C2(CCC2)NC(=O)[C@@H]2CC(F)(F)CN2C(=O)[C@H](CCc2ccc(C(F)(F)F)c(Cl)c2)NC(=O)CN(C)C(=O)[C@H](CC2CCCCC2)N(C)C(=O)CN(C)C(=O)CN(C)C1=O` [Compound 241] (cyclo([Ac4c][NMeChg][NMedβ3hAla][NMeL]I[Sar][Sar][NMeCha][Sar][hPhe(3-Cl-4-CF3)][Pro(4,4-F2)])), the IC50 stood at 18 nM.

Regarding `C=CC[C@]1(C)NC(=O)[C@@H]2CCCN2C(=O)[C@H](CCc2ccc(C(F)(F)F)c(Cl)c2)NC(=O)CN(C)C(=O)[C@H](CC2CCCCC2)N(C)C(=O)CN(C)C(=O)CN(C)C(=O)[C@H]([C@@H](C)CC)NC(=O)[C@H](CC(C)C)N(C)C(=O)C[C@@H](C)NC(=O)[C@H](C(C)C)N(C)C1=O` [Compound 242] (cyclo(I[Sar][Sar][NMeCha][Sar][hPhe(3-Cl-4-CF3)]P[X2][NMeV][d(β3hA)][NMeL])), the 50% inhibitory concentration (IC50) is 27 nM.

In the case of `CC[C@H](C)[C@@H]1NC(=O)CCN(C)C(=O)[C@H](COCC(C)(C)O)N(C)C(=O)[C@H](C2CCCC2)N(C)C(=O)C2(CCCC2)NC(=O)[C@@H]2CCCN2C(=O)[C@H](CCc2ccc(C(F)(F)F)c(Cl)c2)NC(=O)CN(C)C(=O)[C@H](CC2CCCCC2)N(C)C(=O)CN(C)C(=O)CN(C)C1=O` [Compound 244] (cyclo([Ac5c][NMeGly(cPent)][NMeS](CH2CMe2OH)[NMeβAla]I[Sar][Sar][NMeCha][Sar][hPhe(3-Cl-4-CF3)]P)), the IC50 was determined as 140 nM.

For the compound `CC[C@H](C)[C@@H]1NC(=O)[C@H](CC(F)(F)F)N(C)C(=O)C[C@@H](C(=O)N2CCCC2)N(C)C(=O)[C@H](C2CCCCC2)N(C)C(=O)C2(CCCC2)NC(=O)[C@@H]2CCCN2C(=O)[C@H](CCc2ccc(C(F)(F)F)c(Cl)c2)NC(=O)CN(C)C(=O)[C@H](Cc2ccc(C(F)(F)F)cc2)N(C)C(=O)CN(C)C(=O)CN(C)C1=O` [Compound 245, (3S,9S,18S,21S,25S,28S,34S)-3-[2-[3-chloro-4-(trifluoromethyl)phenyl]ethyl]-28-cyclohexyl-7,10,13,16,22,26,29-heptamethyl-18-[(1S)-1-methylpropyl]-25-(pyrrolidine-1-carbonyl)-21-(2,2,2-trifluoroethyl)-9-[[4-(trifluoromethyl)phenyl]methyl]spiro[1,4,7,10,13,16,19,22,26,29,32-undecazabicyclo[32.3.0]heptatriacontane-31,1′-cyclopentane]-2,5,8,11,14,17,20,23,27,30,33-undecone] ([NMeAbu(4,4,4-F3)]I[Sar][Sar][NMePhe(4-CF3)][Sar][hPhe(3-Cl-4-CF3)]P[Ac5c][NMeChg][NMeD]-Pyrrolidide; lactam N-11), the IC50 was 0.37 nM.

Take `CC[C@H](C)[C@@H]1NC(=O)[C@H](CC(C)C)N(C)C(=O)C[C@@H](C(=O)N2CCCCC2)N(C)C(=O)[C@H](CC(C)C)NC(=O)C(C)(C)N(C)C(=O)[C@H](Cc2ccc(OC)cc2)NC(=O)[C@H](Cc2cccc(I)c2)NC(=O)CN(C)C(=O)[C@H](Cc2ccc(C)cc2)N(C)C(=O)CN(C)C(=O)CN(C)C1=O` [Compound 247] ([NMeL]I[Sar][Sar][NMePhe(4-Me)][Sar][Phe(3-I)]Y(Me)[NMeAib]L[NMeD]-Piperidide; lactam N-11): the IC50 is 7 nM.

Take `CC[C@H](C)[C@@H]1NC(=O)[C@H](CC2CC2)N(C)C(=O)C[C@@H](C)NC(=O)[C@H](C(C)C)N(C)C(=O)C2(CCCC2)NC(=O)[C@@H]2CCCN2C(=O)[C@H](CCc2ccc(C(F)(F)F)c(Cl)c2)NC(=O)CN(C)C(=O)[C@H](CC2CCCCC2)N(C)C(=O)CN(C)C(=O)CN(C)C1=O` [Compound 248] (cyclo([Ac5c][NMeV][d(β3hA)][NMeAla(cPr)]I[Sar][Sar][NMeCha][Sar][hPhe(3-Cl-4-CF3)]P)): the 50% inhibitory concentration (IC50) turned out to be 31 nM.

Consider `CC[C@H](C)[C@@H]1NC(=O)[C@H](CC(C)C)N(C)C(=O)C[C@@H](C(=O)N2CCCCC2)N(C)C(=O)[C@H](C(C)C)N(C)C(=O)C2(CCC2)NC(=O)[C@H](CC(=O)N2CCC(F)(F)CC2)N(C)C(=O)[C@H](CCc2ccc(C(F)(F)F)c(Cl)c2)NC(=O)CN(C)C(=O)[C@H](CC2CCCCC2)N(C)C(=O)CN(C)C(=O)CN(C)C1=O` [Compound 251] ([NMeL]I[Sar][Sar][NMeCha][Sar][hPhe(3-Cl-4-CF3)][NMeD](N(CH2CH2)2CF2)[Ac4c][NMeV][NMeD]-Piperidide; lactam N-11), for which the 50% inhibitory concentration (IC50) is 3.8 nM.

`CC[C@H](C)[C@@H]1NC(=O)[C@H](C)N(C)C(=O)C[C@@H](C(=O)N2CCCCC2)NC(=O)[C@H](CC(C)C)N(C)C(=O)[C@H](Cc2ccccc2)N(C)C(=O)[C@H](CC(C)C)NC(=O)[C@H](Cc2cccc(C#N)c2)NC(=O)CN(C)C(=O)[C@H](Cc2ccc(Cl)cc2)N(C)C(=O)CN(C)C(=O)CN(C)C1=O` [Compound 252] ([NMeA]I[Sar][Sar][NMePhe(4-Cl)][Sar][Phe(3-CN)]L[NMeF][NMeL]D-Piperidide; lactam N-11): the 50% inhibitory concentration (IC50) is 55 nM.
